Laboratory results as given in PubChem BioAssay (NCI).
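Where inhibition never reached the appropriate level, the endpoint shown equals the highest concentration tested. Otherwise, values were interpolated linearly from a five-concentration, 48-hour dose response in 96-well plates. GI50 is the concentration that inhibits growth by half. The concentration for full growth arrest is given as TGI.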

What was measured:
Assay in all cases: NCI-60 cell line screen, 48 h
[1] = tested on: NCI-H226 lung
[2] = tested on: EKVX NSCLC
[3] = tested on: KM12 colon
[4] = tested on: RXF 393 renal
[5] = tested on: CAKI-1 renal
[6] = tested on: TK-10 renal
[7] = tested on: OVCAR-3 ovarian
[8] = tested on: LOX IMVI melanoma
[9] = tested on: HOP-92 NSCLC
[10] = tested on: T-47D breast
[11] = tested on: A498 renal
[12] = tested on: SF-295 CNS
[13] = tested on: MDA-MB-435
[14] = tested on: HOP-62 NSCLC
[15] = tested on: UACC-257 melanoma
[16] = tested on: A549 NSCLC
[17] = tested on: BT-549 breast
[18] = tested on: SK-MEL-5 melanoma
[19] = tested on: OVCAR-4 ovarian
[20] = tested on: HS 578T breast
[21] = tested on: HCT-15 colon
[22] = tested on: NCI-H522 lung
[23] = tested on: OVCAR-8 ovarian
[24] = tested on: M14 melanoma
[25] = tested on: SK-MEL-2 melanoma
[26] = tested on: SF-539 CNS
[27] = tested on: K-562 leukemia
[28] = tested on: SK-OV-3 ovarian
[29] = tested on: U251 CNS
[30] = tested on: PC-3 prostate
[31] = tested on: HCT-116 colon
[32] = tested on: MOLT-4 leukemia
[33] = tested on: NCI-H460 lung
[34] = tested on: HCC-2998 colon
[35] = tested on: UACC-62 melanoma
[36] = tested on: MDA-MB-468 breast
[37] = tested on: SNB-75 CNS
[38] = tested on: 786-0 renal
[39] = tested on: MCF7 breast
[40] = tested on: UO-31 renal
[41] = tested on: RPMI-8226 leukemia
[42] = tested on: SW-620 colon
[43] = tested on: DU-145 prostate
[44] = tested on: HL-60(TB) leukemia
[45] = tested on: SNB-19 CNS
[46] = tested on: OVCAR-5 ovarian
[47] = tested on: MALME-3M melanoma
[48] = tested on: COLO 205 colon
[49] = tested on: SK-MEL-28 melanoma
[50] = tested on: MDA-MB-231 breast
[51] = tested on: SR leukemia
[52] = tested on: HT29 colon
[53] = tested on: SF-268 CNS
[54] = tested on: SN12C renal
[55] = tested on: NCI-H23 lung
[56] = tested on: ACHN renal
[57] = tested on: IGROV1 ovarian
[58] = tested on: CCRF-CEM leukemia

SMILES: COc1cc2cc(C(=O)N3C[C@@H](CCl)c4c3cc(OC(=O)N(CCC(=O)N3CCN(C)CC3)C3CCCCC3)c3ccccc43)[nH]c2c(OC)c1OC
- GI50 [1]: 1.44 µM
- TGI [1]: 4.21 µM
- GI50 [2]: 1.95 µM
- TGI [2]: 5.89 µM
- GI50 [3]: 2.07 µM
- TGI [3]: 7.25 µM
- GI50 [4]: 1.06 µM
- TGI [4]: 2.46 µM
- GI50 [5]: 1.49 µM
- TGI [5]: 7.65 µM
- GI50 [6]: 2.85 µM
- TGI [6]: 8.53 µM
- GI50 [7]: 2.1 µM
- TGI [7]: 4.67 µM
- GI50 [8]: 1.1 µM
- TGI [8]: 2.76 µM
- GI50 [9]: 2.5 µM
- TGI [9]: 9.46 µM
- GI50 [10]: 1.9 µM
- TGI [10]: 6.63 µM
- GI50 [11]: 2.77 µM
- TGI [11]: 5.27 µM
- GI50 [12]: 1.55 µM
- TGI [12]: 6.79 µM
- GI50 [13]: 1.78 µM
- TGI [13]: 3.65 µM
- GI50 [14]: 0.594 µM
- TGI [14]: 9.11 µM
- GI50 [15]: 1.99 µM
- TGI [15]: 4.63 µM
- GI50 [16]: 1.99 µM
- TGI [16]: > 100 µM
- GI50 [17]: 1.59 µM
- TGI [17]: 4.22 µM
- GI50 [18]: 1.64 µM
- TGI [18]: 3.22 µM
- GI50 [19]: 2.34 µM
- TGI [19]: 6.35 µM
- GI50 [20]: 2.42 µM
- TGI [20]: 7.11 µM
- GI50 [21]: 1.73 µM
- TGI [21]: 6.71 µM
- GI50 [22]: 1.7 µM
- TGI [22]: 4.53 µM
- GI50 [23]: 1.66 µM
- TGI [23]: 10.1 µM
- GI50 [24]: 1.52 µM
- TGI [24]: 4.24 µM
- GI50 [25]: 1.98 µM
- TGI [25]: 3.5 µM
- GI50 [26]: 1.31 µM
- TGI [26]: 3.87 µM
- GI50 [27]: 0.677 µM
- TGI [27]: 20.3 µM
- GI50 [28]: 2.15 µM
- TGI [28]: 9.35 µM
- GI50 [29]: 1.51 µM
- TGI [29]: 4.46 µM
- GI50 [30]: 3.14 µM
- TGI [30]: > 100 µM
- GI50 [31]: 1.5 µM
- TGI [31]: 9.94 µM
- GI50 [32]: 0.594 µM
- TGI [32]: 10.1 µM
- GI50 [33]: 0.512 µM
- TGI [33]: 10.7 µM
- GI50 [34]: 1.52 µM
- TGI [34]: 3.48 µM
- GI50 [35]: 1.53 µM
- TGI [35]: 3.28 µM
- GI50 [36]: 0.688 µM
- TGI [36]: 2.29 µM
- GI50 [37]: 1.29 µM
- TGI [37]: 3.7 µM
- GI50 [38]: 1.73 µM
- TGI [38]: 10.1 µM
- GI50 [39]: 0.318 µM
- TGI [39]: 2.63 µM
- GI50 [40]: 1.88 µM
- TGI [40]: 6.34 µM
- GI50 [41]: 1.47 µM
- TGI [41]: 5.08 µM
- GI50 [42]: 1.89 µM
- TGI [42]: 12.6 µM
- GI50 [43]: 0.456 µM
- TGI [43]: 4.63 µM
- GI50 [44]: 0.751 µM
- TGI [44]: 3.73 µM
- GI50 [45]: 2.22 µM
- TGI [45]: 20 µM
- GI50 [46]: 5.11 µM
- TGI [46]: 27.9 µM
- GI50 [47]: 1.57 µM
- TGI [47]: 3.05 µM
- GI50 [48]: 1.37 µM
- TGI [48]: 2.8 µM
- GI50 [49]: 3.58 µM
- TGI [49]: 8.96 µM
- GI50 [50]: 3.07 µM
- TGI [50]: 8.63 µM
- GI50 [51]: 0.276 µM
- TGI [51]: 1.93 µM
- GI50 [52]: 1.52 µM
- TGI [52]: 4.24 µM
- GI50 [53]: 1.54 µM
- TGI [53]: 7.45 µM
- GI50 [54]: 1.2 µM
- TGI [54]: 10.2 µM
- GI50 [55]: 0.471 µM
- TGI [55]: 1.93 µM
- GI50 [56]: 0.493 µM
- TGI [56]: 10.7 µM
- GI50 [57]: 2.31 µM
- TGI [57]: 7.76 µM
- GI50 [58]: 0.993 µM
- TGI [58]: 12.1 µM
